This is an account of results in patent US20160206592A1, “METHOD FOR TREATING AMYOTROPHIC LATERAL SCLEROSIS BY INHIBITION OF CXCR4/CXCL12 SIGNALING” (RAMOT AT TEL-AVIV UNIVERSITY LTD., priority 2013, published 2016).

In assay [1] the test system is SOD1-G93A female and male mice.
Protocol: FIGS. 4A-4C are graphs showing survival (Kaplan-Meier curves; P-value=0.0001) of SOD1-G93A female and male mice subcutaneously treated with either 5 mg/kg AMD3100 or PBS, starting at 50 days old; N=29 (AMD3100), N=16 (PBS).
In assay [2] the test system is NSC-34 cells stably transfected with mutant SOD1. Conditions: 25 ug AMD3100, astrocytes from newborn SODG93A mice incubated 24 h, compared to other concentrations. How it is done: Primary astrocytes from 3 days old newborn SODG93A mice were incubated AMD3100 for 24 h. Media of treated astrocytes was then added to NSC-34 cells stably transfected with mutant SOD1.

For assay [3], the system named is ZO-1, claudin 5, Occludin. The following applies: female SODG93A mice, 5 mg/kg s.c. twice a week from 50 days old, sacrificed at 110 days old. How it is done:
FIGS. 9A-9C show Blood-CNS-Barrier markers levels following AMD3100 treatment. 50 days old female SODG93A mice were s.c injected with 5 mg/kg AMD3100 twice a week. On 110 days old mice were sacrificed and analyzed for B-CNS-B markers using western blot.
Endothelial cells play an important role in B-CNS-B function. B-CNS-B dysfunction is recognized to participate in neurodegenerative disorders. […] TJPs such as ZO-1, occludin and the claudin family exist in cerebral vascular endothelial cells, which are the most crucial factors modulating barrier integrity. […] The expression of TJPs has been reported to contribute to barrier function. ZO-1 and claudin-5 are the most important components for cell barrier integrity. Claudin-5 can greatly reduce dextran permeability and improve transendothelial electrical resistance and plays an essential role in the earliest stage of CNS angiogenesis. ZO-1 serves as a bridge between transmembrane proteins and skeleton proteins, and this interaction is important to the stability and function of endothelial barrier. […] All these three proteins are known to be reduced by 40%-60% in both animal models of ALS and humans, even prior to disease onset (Zhong et al., 2008).

In another assay the test system is activated microglia. The following applies: female SODG93A mice, 5 mg/kg s.c. twice a week from 50 days old, sacrificed at 110 days old. As to the method: 50 days old female SODG93A mice were s.c injected with 5 mg/kg AMD3100 twice a week. On 110 days old mice were sacrificed and analyzed using western blot for inflammatory markers of activated microglia. FIG. 7A. is cd36 levels. FIG. 7B. is Iba-1 levels.
Loss of upper and lower MNs results in progressive muscle paralysis and ultimately death due to respiratory failure. Although initially thought to derive from the selective loss of MNs, the pathogenic concept of non-cell autonomous disease has come to the fore front for the contribution of glial cells in ALS, in particular microglia. […] Conversely, activated microglia contributes and enhances MN death by secreting neurotoxic factors, and impaired microglial function at the end-stage may instead accelerate disease progression. However, the nature of microglial-neuronal interactions that lead to MN degeneration remains elusive.

The test system of a further assay is transgenic G93A mice. Conditions: G93A female mice, s.c. once and twice a week.
[4] abbreviates: females only, 5 mg/kg twice a week.
The mark [5] stands for this setting: males and females together, 5 mg/kg s.c., starting at 50 days old.
[6] abbreviates: males only, 5 mg/kg twice a week.

Where two headings read alike, the source gives them in different places.

Description for transgenic G93A mice: Six mice received AMD3100 once a week, eight mice received AMD3100 twice a week, and seven mice received PBS once a week.
For this purpose, the present inventors treated G93A female mice subcutaneously with either AMD3100 or PBS, starting at 70 days old. Six mice received AMD3100 once a week, eight mice received AMD3100 twice a week, and seven mice received PBS once a week.

For the compound `c1cc(CN2CCCNCCNCCCNCC2)ccc1CN1CCCNCCNCCCNCC1` [AMD3100, 1,1′-[1,4-Phenylenebis(methylene)]bis-1,4,8,11-tetraazacyclotetradecane], in assay [1] (setting [4]), the mean survival was found to be 146 days, the median survival is 144 days and the “survival (versus PBS)” value is given as 14 days. Moreover, in assay [1] (setting [5]), the mean survival was 144 days, the median survival stood at 143 days and the “survival according to Kaplan-Meier curve (versus PBS)” value amounted to 12 days. Further, in assay [1] (setting [6]), the mean survival was 141 days, the median survival is given as 139 days and the “survival (versus PBS)” value worked out at 8 days. In addition, the “survival of motor neuron like cells” value in assay [2] is recorded as “increased the survival”. Further, in assay [3], the Occludin levels entry is “effective in restoring the expression”, the ZO-1 levels result is “effective in restoring the expression” and the “claudin 5 levels” value is “effective in restoring the expression”. Besides, in the assay on activated microglia, the Iba-1 levels result was “significant reduction” and the cd36 levels entry is “significant reduction”. Moreover, in the assay on transgenic G93A mice, the “extension of survival compared with control (PBS) mice” value is listed as “about 14 days”. Besides, the age at death in the assay on transgenic G93A mice (starting at 70 days old) is ~170 days old.
